Measured values reported in patent US5563125A, “5'-deoxy-5'-(substituted)alkylthioribose compounds and their pharmaceutical compositions” (priority 1992, dated 1996).

Key:
[1] = target: T1, T. b. brucei MTA phosphorylase (Trypanosoma brucei, UniProt Q57XS4); assay: T. b. brucei MTA phosphorylase substrate assay; type: biochemical; details: relative to MTA
T1 construct: MTA or analogs as substrates
Experimental: ^a MTA phosphorylase was assayed according to Ghoda et al., using 200
μM MTA (saturating) or analogs as substrates. Specific activities of
the dialyzed enzyme preparations were with 50 mM PO4, 104.97 n
moles/mg protein/h; without PO4, 28.27 n moles/mg protein/h. Results
are expressed as percent activity compared to as substrate with and
without PO4, respectively.

[2] = tested on: T. b. brucei procyclic trypanosomes (Lab 110 EATRO strain); assay: In vitro antitrypanosomal activity, procyclic trypanosomes in T2 medium; type: cell-based, Trypanosoma brucei brucei; details: Trypanosoma brucei, 3-5 days
Experimental: The antitrypanosomal effects of HETA and other nucleosides were examined in the Lab 110 EATRO strain of T. b. brucei in culture.
Cells were cultured as described in Bacchi et al. Exp. Parasitol. 68, 392, 1989. Cells were then grown in the presence of the compounds for 3-5 days. Drugs were filtered, sterilized and added aseptically. Control cells achieved a maximum density of 1.5-3.5×10^7 /ml. Hemocytometer counts were made daily and the results were expressed as a percent of control growth. IC50 plots were obtained by graphing log (drug) vs. percent growth inhibition.
Trypanocidal Activity of MTA and MTR Analogs
against T. b. brucei procyclic trypanosomes in T2 medium.

[3] = tested on: MOLT-4 cells (MTA phosphorylase-containing); assay: Growth inhibition of MOLT-4 cells; type: cell-based, human; details: Homo sapiens, MOLT-4, 96 h
Experimental: (§1) L1210, L5178Y and MOLT-4 cell lines were grown in RPMI 1640 and 10% Nu Serum (Collaborative Research Inc., Lexington, Mass.) and CCRF-CEM cells were grown in 10% Horse Serum (Gibco Laboratories, Grand Island, N.Y.) and maintained as previously described for suspension cultures by Pera et al. in Cancer Res. 46, 1148, 1986. Cell cultures (0.3×10^5 cells/ml) were treated with each compound at 0.1 to 1000 μM to determine the concentration that inhibited growth by 50% (IC50) at 48 hr for the L1210 and L5178Y cells and at 96 hr for the CCRF-CEM and MOLT-4 cells. The incubation times allowed approximately 4 cell doublings in each cell line. All compounds were freshly prepared prior to treatment by dissolving in DMSO and diluting in serum-free media. Cells were counted by electron particle counting (Model XF' Coulter Counter; Coulter Electronics, Hialeah, Fla.).
(§2) For each compound, the concentrations required to inhibit cell growth by 50% (IC50 values) are shown in Table 7 for two murine leukemic cell lines, L1210 and L5178Y [MTA phosphorylase-deficient and MTA phosphorylase-containing, respectively] and two human leukemic cell lines, CCRF-CEM and MOLT-4 [MTA phosphorylase-deficient and MTA phosphorylase-containing, respectively]. ETA, MFETA, HETA and PTA had lower IC50 values in the L5178Y cells than in the L1210 cells. […] This differential is consistent with the possibility that, in L5178Y cells, MFETA is cleaved by MTA phosphorylase to the growth inhibitory metabolite, 5-monofluoroethylthioribose-1-phosphate (MFETR-1-P).

[4] = tested on: CCRF-CEM cells (MTA phosphorylase-deficient); assay: Growth inhibition of CCRF-CEM cells; type: cell-based, human; details: Homo sapiens, 96 h
Experimental: as §1, §2

[5] = tested on: L1210 cells (MTA phosphorylase-deficient); assay: Growth inhibition of L1210 cells; type: cell-based, mouse; details: Mus musculus, L1210, 48 h
Experimental: as §1, §2

[6] = target: T2, Mouse Liver MTA Phosphorylase (Mus musculus, UniProt Q9CQ65); assay: Mouse liver MTA phosphorylase substrate/inhibitor assay; type: biochemical; details: substrate activity relative to MTA
T2 sequence (Q9CQ65 1-283): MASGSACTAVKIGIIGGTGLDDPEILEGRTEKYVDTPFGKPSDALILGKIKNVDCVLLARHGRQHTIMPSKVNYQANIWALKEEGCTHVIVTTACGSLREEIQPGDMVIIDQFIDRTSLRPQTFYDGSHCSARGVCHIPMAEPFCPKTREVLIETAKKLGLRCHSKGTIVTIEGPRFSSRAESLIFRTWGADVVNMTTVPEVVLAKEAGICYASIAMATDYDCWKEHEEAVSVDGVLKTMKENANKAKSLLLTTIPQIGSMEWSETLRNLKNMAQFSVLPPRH
Experimental: ^a MTA phosphorylase activity was assayed as described in Sufrin et

[7] = tested on: L5178Y cells (MTA phosphorylase-containing); assay: Growth inhibition of L5178Y cells; type: cell-based, mouse; details: Mus musculus, 48 h
Experimental: as §1, §2

[8] = tested on: T. b. brucei LAB 110 EATRO; assay: In vivo antitrypanosomal activity, LAB EATRO mouse infection model; details: 7 days, miniosmotic pump
Experimental: ^a Animals were treated with surgically implanted miniosmotic pumps
loaded as per manufacturers instructions with MTA, HETA or MFETA suspende

T1 sequence (Q57XS4 entry or part of it): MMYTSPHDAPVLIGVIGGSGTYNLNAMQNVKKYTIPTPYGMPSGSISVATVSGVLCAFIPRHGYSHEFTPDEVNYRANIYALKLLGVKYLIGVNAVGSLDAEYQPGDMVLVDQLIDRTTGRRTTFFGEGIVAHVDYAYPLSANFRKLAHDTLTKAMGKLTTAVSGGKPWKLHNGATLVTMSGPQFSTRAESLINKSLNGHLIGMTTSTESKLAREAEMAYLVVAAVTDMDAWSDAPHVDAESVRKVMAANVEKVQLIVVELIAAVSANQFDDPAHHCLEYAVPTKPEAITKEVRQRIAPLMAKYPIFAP

Structure (SMILES)	Percent Control Activity ([1]; +50 mM PO4, 200 μM substrate) [%]	Percent Control Activity ([1]; No PO4, 200 μM substrate) [%]	IC50 [2] [µM]	IC50 [3] [µM]	IC50 [4] [µM]	IC50 [5] [µM]	Substrate (% Control) [6] [% Control]	IC50 [7] [µM]	% Cured ([8]; 25 mg/kg/day) [%]	MSD (mean survival in days of animals dying of infection) ([8]; 25 mg/kg/day) [days]	Number Cured Total ([8]; 25 mg/kg/day)	% Cured ([8]; 50 mg/kg/day) [%]	MSD (mean survival in days of animals dying of infection) ([8]; 50 mg/kg/day) [days]	Number Cured Total ([8]; 50 mg/kg/day)	% Cured ([8]; 100 mg/kg/day) [%]	MSD (mean survival in days of animals dying of infection) ([8]; 100 mg/kg/day) [days]	Number Cured Total ([8]; 100 mg/kg/day)
Nc1ncnc2c1ncn2[C@@H]1O[C@H](CSCCCO)[C@@H](O)[C@H]1O [HPTA]	72.5	101.8	170	–	–	–	–	–	–	–	–	–	–	–	–	–	–
Nc1ncnc2c1ncn2[C@@H]1O[C@H](CSCCCF)[C@@H](O)[C@H]1O [MFPTA, reference compound]	47.5	116.4	120	25	160	600	66	600	–	–	–	–	–	–	–	–	–
CSC[C@H]1O[C@@H](n2cnc3c(N)ncnc32)[C@H](O)[C@@H]1O [MTA, 5'-deoxy-5'-methylthioadenosine, reference compound]	100	100	–	11 ± 7	150 ± 60	850 ± 120	100	200 ± 45	0	5.0	0/5	0	5.0	0/5	0	5.0	0/5
N=C(N)c1ccc(OCCCCCOc2ccc(C(=N)N)cc2)cc1 [PENTAMIDINE]	–	–	0.2	–	–	–	–	–	–	–	–	–	–	–	–	–	–
CCCSC[C@H]1O[C@@H](n2cnc3c(N)ncnc32)[C@H](O)[C@@H]1O [PTA, reference compound]	57.5	96.4	46	45	160	1000	102	500	–	–	–	–	–	–	–	–	–
